Source: patent publication US20090306150A1, “CARBOXYLIC ACID SALTS OF 2-AMINO-3-CARBETHOXYAMINO-6-(4-FLUORO-BENZYLAMINO)-PYRIDINE” (AWD. PHARMA GMBH & CO. KG, priority 2008, published 2009)

What was measured:
Format in all cases: physicochemical
[1] = Dissolution profiles of flupirtine acid addition salts in ethanol (compacted substance); details: 100 mg compacted, 1000 ml ethanol, 37° C., basket 50 UpM
Method: The dissolution in Ethanol was measured using compacted substance.
100 mg substance was compacted using a hydraulic press. Diameter of cake: 8.9 mm; pressure 20 kp/cm^2 for 15 sec. Liberation parameter:
Basket, 50 UpM, 1000 ml medium 37° C. Apparatus: DT6R Dissolution Tester (ERWEKA).
At given time points 5.0 ml solution were taken and measured vs. reference at 244 nm at a spectral photometer. The solution was refilled with 5 ml solvent. The amount of liberated substance at given time points was calculated using a response factor (absorption/mg substance). Measuring error: 10%.

[2] = Crystal shape of flupirtine salts (light microscope photomicrographs)
From the text: As referred to herein, the “aspect ratio” denotes the ratio of the second largest dimension of a crystal particle (i.e. its width) to the largest dimension of the crystal particle (i.e. its length). The aspect ratio may be determined from a representative number of crystals by visual observation under a light microscope. The photomicrographs were obtained by gently exerting pressure on the sample material with a mortar and pistil, transferring the sample material to a microscope slide and covering it with immersion oil, followed by observation and image recording on an Optech Biostar microscope equipped with a polarisation filter. The magnification was 200, i.e. at a width of the photomicrograph of 14 cm, 1 cm of said photograph corresponds to about 0.06 mm.

[3] = Storage stability of flupirtine salts (HPLC); details: for Decrease of the area under the peak of the flupirtine signal: 0 to 14 days of storage at room temperature under normal air; for Flupirtine signal after 14 days (area under the peak in %): HPLC after 14 days of storage at room temperature under normal air, about 21% oxygen; for Flupirtine signal after 0 days (area under the peak in %): HPLC after preparation of the salts
Method: [table] HPLC was performed after preparation of the salts and repeated after 14 days of storage at room temperature under normal air containing about 21% oxygen.

[4] = Determining the bulk density of flupirtine salts; details: volume per 100.0 g of sample material, about 4 g in 10 ml measuring cylinder, not compacted
Method: The bulk density was determined as follows: Without increasing its density, sample material (about 4 grams) was introduced into a 10 ml measuring cylinder (±0.2 ml). The volume and the exact weight of the introduced sample material were determined. The bulk density was calculated as volume per 100.0 g of sample material.

[5] = Stability towards oxidation and discoloration when exposed to air; details: storage period of 30 days at room temperature, in contrast to maleate and gluconate
From the text: Discoloration can take takes place after prolonged storage or when exposed to air. Discoloration is regarded as leading to an active pharmaceutical ingredient (API) of low pharmaceutical quality and can be avoided by using a protective atmosphere in the production process and using expensive packaging materials for the finished drug forms. The discoloration effect is known for flupirtine hydrochloride, flupiritine gluconate and both polymorphs of flupirtine maleate.

[6] = Dissolution profiles of flupirtine acid addition salts in ethanol (compacted substance); details: after 10 min stirring in ethanol

SMILES	Amount of substance dissolved ([1]; 5 min)	Amount of substance dissolved ([1]; 10 min)	Amount of substance dissolved ([1]; 15 min)	Amount of substance dissolved ([1]; 20 min)	Amount of substance dissolved ([1]; 25 min)	Amount of substance dissolved ([1]; 30 min)	Amount of substance dissolved ([1]; 60.25 min)	Crystal shape [2]	Decrease of the area under the peak of the flupirtine signal [3]	Flupirtine signal after 14 days (area under the peak in %) [3]	Flupirtine signal after 0 days (area under the peak in %) [3]	Bulk density (ml/100 g substance) [4]	Stability towards oxidation and towards discoloration [5]	Dissolution in ethanol (in words) [6]
CCOC(=O)Nc1ccc(NCc2ccc(F)cc2)nc1N.O=C(O)/C=C\C(=O)O [Flupirtine maleate B, Flupirtine Maleate Form B, reference compound]	4.2 mg	6.3 mg	12.1 mg	16.5 mg	21.3 mg	27.4 mg	69.5 mg	Very fine needles	3.22%	95.92%	99.12%	1634 ml/100 g substance		
CCOC(=O)Nc1ccc(NCc2ccc(F)cc2)nc1N [Flupirtine propionate, 2-amino-3-carbethoxyamino-6-(4-fluoro-benzylamino)-pyridine propionate]	110.0 mg	109.4 mg	110.3 mg	107.4 mg	109.6 mg	110.9 mg	112.2 mg	Hexagons and polygonal plates				306 ml/100 g substance	substantially improved stability	completely dissolved
CCOC(=O)Nc1ccc(NCc2ccc(F)cc2)nc1N.O=C(O)C(F)(F)F [Flupirtine triflutate, Flupirtine Triflutate]	98.5 mg	115.1 mg	108.0 mg	107.7 mg										completely dissolved
CC(=O)O.CCOC(=O)Nc1ccc(NCc2ccc(F)cc2)nc1N [Flupirtine acetate, 2-amino-3-carbethoxyamino-6-(4-fluoro-benzylamino)-pyridine acetate]	50.3 mg	108.3 mg	103.0 mg	95.8 mg	96.2 mg	108.3 mg	99.7 mg	Hexagons and polygonal plates	0.9%	98.64%	99.54%	330 ml/100 g substance	substantially improved stability	
CCOC(=O)Nc1ccc(NCc2ccc(F)cc2)nc1N.O=C(O)/C=C\C(=O)O [Flupirtine maleate A, Flupirtine Maleate Form A, reference compound]	2.1 mg	4.1 mg	6.5 mg	9.5 mg	11.7 mg	14.3 mg	24.2 mg	Fine needles	3.11%	96.18%	99.27%	686 ml/100 g substance		
